Laboratory results reported in ChEMBL document CHEMBL1145623, “Structure-activity relationships of anthranilamide-based factor Xa inhibitors containing piperidinone and pyridinone P4 moieties” (Bioorg Med Chem Lett, 2008).
Values after ≈ are worked out from the molar mass of the structure shown.

Tested on: not listed separately
Test: Solubility in potassium phosphate buffer at pH 6.5 by thermodynamic equilibrium aqueous solubility assay
Format: physicochemical
Conditions: not given

Compound	solubility thermodynamic [µg/mL]
COc1cc(Cl)cc(C(=O)Nc2ccc(Cl)cn2)c1NC(=O)c1ccc(N2CCCCC2=O)cc1	19 (≈ 37 µM)
CN(C)CCOc1cc(Cl)cc(C(=O)Nc2ccc(Cl)cn2)c1NC(=O)c1ccc(N2CCCCC2=O)cc1	912 (≈ 1600 µM)

Tested on: not listed separately
Test: Bioavailability in dog at 0.02 to 0.5 mg/kg, po
Format: ADME, organism-based, Canis lupus familiaris
Conditions: in vivo

Compound	bioavailability [%]
COc1cc(Cl)cc(C(=O)Nc2ccc(Cl)cn2)c1NC(=O)c1ccc(N2CCCCC2=O)cc1	44
COc1cc(Cl)cc(C(=O)Nc2ccc(Cl)cn2)c1NC(=O)c1ccc(-n2ccccc2=O)cc1F	18
COc1cc(Cl)cc(C(=O)Nc2ccc(Cl)cn2)c1NC(=O)c1ccc(-n2ccccc2=O)nc1	74
COc1cc(Cl)cc(C(=O)Nc2ccc(Cl)cn2)c1NC(=O)c1ccc(-n2ccccc2=O)cc1	99

Tested on: Canis familiaris
Test: Volume of distribution at steady state in dog at 0.02 to 0.5 mg/kg, iv and po
Format: ADME, organism-based, Canis lupus familiaris
Parameters: dose 0.02-0.5 mg/kg, route oral
Conditions: in vivo

Compound	Vdss [L/kg]
COc1cc(Cl)cc(C(=O)Nc2ccc(Cl)cn2)c1NC(=O)c1ccc(N2CCCCC2=O)cc1	1.3
COc1cc(Cl)cc(C(=O)Nc2ccc(Cl)cn2)c1NC(=O)c1ccc(-n2ccccc2=O)cc1F	2.6
COc1cc(Cl)cc(C(=O)Nc2ccc(Cl)cn2)c1NC(=O)c1ccc(-n2ccccc2=O)nc1	0.81
COc1cc(Cl)cc(C(=O)Nc2ccc(Cl)cn2)c1NC(=O)c1ccc(-n2ccccc2=O)cc1	0.62
COc1ccc(-n2nc(C(N)=O)c3c2C(=O)N(c2ccc(N4CCCCC4=O)cc2)CC3)cc1 [APIXABAN]	0.2

Tested on: Canis familiaris
Test: Clearance in dog at 0.02 to 0.5 mg/kg, iv and po
Format: ADME, organism-based, Canis lupus familiaris
Parameters: dose 0.02-0.5 mg/kg, route oral
Conditions: in vivo

Compound	CL [mL/min/kg]
COc1cc(Cl)cc(C(=O)Nc2ccc(Cl)cn2)c1NC(=O)c1ccc(N2CCCCC2=O)cc1	12
COc1cc(Cl)cc(C(=O)Nc2ccc(Cl)cn2)c1NC(=O)c1ccc(-n2ccccc2=O)cc1F	13
COc1cc(Cl)cc(C(=O)Nc2ccc(Cl)cn2)c1NC(=O)c1ccc(-n2ccccc2=O)nc1	5
COc1cc(Cl)cc(C(=O)Nc2ccc(Cl)cn2)c1NC(=O)c1ccc(-n2ccccc2=O)cc1	11.2
COc1ccc(-n2nc(C(N)=O)c3c2C(=O)N(c2ccc(N4CCCCC4=O)cc2)CC3)cc1 [APIXABAN]	0.33

Tested on: not listed separately
Test: Half life in dog at 0.02 to 0.5 mg/kg, po
Format: ADME, organism-based, Canis lupus familiaris
Parameters: dose 0.02-0.5 mg/kg, route oral
Conditions: in vivo

Compound	half-life [h]
COc1cc(Cl)cc(C(=O)Nc2ccc(Cl)cn2)c1NC(=O)c1ccc(N2CCCCC2=O)cc1	1.5
COc1cc(Cl)cc(C(=O)Nc2ccc(Cl)cn2)c1NC(=O)c1ccc(-n2ccccc2=O)cc1F	0.7
COc1cc(Cl)cc(C(=O)Nc2ccc(Cl)cn2)c1NC(=O)c1ccc(-n2ccccc2=O)nc1	1.6
COc1cc(Cl)cc(C(=O)Nc2ccc(Cl)cn2)c1NC(=O)c1ccc(-n2ccccc2=O)cc1	0.7
COc1ccc(-n2nc(C(N)=O)c3c2C(=O)N(c2ccc(N4CCCCC4=O)cc2)CC3)cc1 [APIXABAN]	5.8
